The source of these data is US20200069691A1, “HETEROCYCLIC COMPOUNDS AS HIV PROTEASE INHIBITORS” (Merck Sharp & Dohme Corp., priority 2016, published 2020).

For orientation: IC50 means the point on the concentration scale where inhibition reaches its midpoint.

This test has as its target T1, wild-type HIV-1 protease (Human immunodeficiency virus type 1 group M subtype B, UniProt P04585).
T1 construct: Escherichia coli expressed wild-type HIV-1 protease protein
The test can be described thus: Assay for Inhibition of Microbial Expressed HIV Protease (peptide substrate cleavage, LC-MS/MS readout). Particulars: E. coli expressed wild-type HIV-1 protease, mean of at least two independent experiments, read-out: HIV Pr Enzyme HIV1 PR IC50. It counts as biochemical. A digest of the protocol: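 Cleavage of Val-Ser-Gln-Asn-(β-naphthyl)Ala-Pro-Ile-Val (400 μM) by recombinant HIV-1 protease ([…]) ran 1 h at 30 °C after a 30 min room-temperature inhibitor preincubation in 50 mM sodium acetate pH 5.5. Product peak areas by LC-MS/MS gave inhibition; values average at least two independent runs.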
With `CC(C)CC1(c2ccccc2)NC(=N)N(Cc2cccc(C(=O)N3Cc4nccnc4C3)c2)C1=O` (stereo not shown) [Compound 235, 3-[3-(5,7-dihydro-6H-pyrrolo[3,4-b]pyrazin-6-ylcarbonyl)benzyl]-2-imino-5-(2-methylpropyl)-5-phenylimidazolidin-4-one], the IC50 was 14.4 nM.

On to `C[C@@H](c1cccc(C(=O)N2Cc3ccccc3C2)c1)N1C(=N)NC(c2ccc(F)cc2)(c2ccc(F)cc2)C1=O` [Compound 325, 3-{(1S)-1-[3-(1,3-dihydro-2H-isoindol-2-ylcarbonyl)phenyl]ethyl}-5,5-bis(4-fluorophenyl)-2-iminoimidazolidin-4-one], for which the IC50 is 58.5 nM. Next, `CN1CCOc2cc(-c3ncc4c(n3)CN(C(=O)c3cc(CN5C(=N)N[C@](CCCC(F)(F)F)(c6ccc(F)cc6)C5=O)ccc3C(F)(F)F)C4)cnc21` [Compound 45, (5R)-5-(4-fluorophenyl)-2-imino-3-[3-{[2-(4-methyl-3,4-dihydro-2H-pyrido[3,2-b][1,4]oxazin-7-yl)-5,7-dihydro-6H-pyrrolo[3,4-d]pyrimidin-6-yl]carbonyl}-4-(trifluoromethyl)benzyl]-5-(4,4,4-trifluorobutyl)imidazolidin-4-one]: 4.6 nM.

For the molecule `COC(=O)N1CCN(C(=O)c2cccc([C@@H](C)N3C(=N)N[C@](CCC(C)C)(c4ccccc4)C3=O)c2)CC1` [Compound 221, methyl 4-[(3-{(1R)-1-[2-imino-4-(3-methylbutyl)-5-oxo-4-phenyl-imidazolidin-1-yl]ethyl}phenyl)-carbonyl]piperazine-1-carboxylate], the IC50 was determined as 11.1 nM.

With `N=C1NC(c2ccccc2)(c2ccccc2)C(=O)N1Cc1cccc(C(=O)N2Cc3ccc(F)cc3C2)c1` [Compound 203, 3-{3-[(5-fluoro-1,3-dihydro-2H-isoindol-2-yl)carbonyl]benzyl}-2-imino-5,5-diphenylimidazolidin-4-one], the half-maximal inhibitory concentration (IC50) amounted to 6.71 nM. Turning to `N=C1NC(c2ccccc2)(c2ccccc2)C(=O)N1Cc1cccc(C(=O)N2CCn3c(nnc3C(F)(F)F)C2)c1` [Compound 329, 2-imino-5,5-diphenyl-3-(3-{[3-(trifluoromethyl)-5,6-dihydro[1,2,4]triazolo[4,3-a]pyrazin-7(8H)-yl]carbonyl}benzyl) imidazolidin-4-one], the IC50 was found to be 66.9 nM. Next, `CS(=O)(=O)Nc1cccc(-c2ncc3c(n2)CN(C(=O)c2cc(CN4C(=N)N[C@](CCCC(F)(F)F)(c5ccc(F)cc5)C4=O)ccc2C(F)(F)F)C3)c1` [Compound 44, N-[3-(6-{[5-{[(4R)-4-(4-fluorophenyl)-2-imino-5-oxo-4-(4,4,4-trifluorobutyl)imidazolidin-1-yl]methyl}-2-(trifluoromethyl)-phenyl]carbonyl}-6,7-dihydro-5H-pyrrolo[3,4-d]pyrimidin-2-yl)phenyl]methanesulfonamide]: 4.55 nM; `CCOC(=O)c1nc2n(c1Cl)CCN(C(=O)c1cccc(CN3C(=N)NC(c4ccccc4)(c4ccccc4)C3=O)c1)C2` [Compound 247, ethyl 3-chloro-7-({3-[(2-imino-5-oxo-4,4-diphenylimidazolidin-1-yl)methyl]phenyl}carbonyl)-5,6,7,8-tetrahydroimidazo[1,2-a]pyrazine-2-carboxylate]: 17.9 nM; `COC(=O)Nc1ncc2c(n1)CN(C(=O)c1cccc(CN3C(=N)NC(CC(C)C)(c4ccccc4)C3=O)c1)C2` (stereo not shown) [Compound 188, methyl {6-[(3-{[2-imino-4-(2-methylpropyl)-5-oxo-4-phenylimidazolidin-1-yl]methyl}phenyl)carbonyl]-6,7-dihydro-5H-pyrrolo[3,4-d]pyrimidin-2-yl}carbamate]: 3.78 nM. Turning to `CC(C)CCC1(c2ccccc2)NC(=N)N(Cc2cccc(C(=O)N3CCN(c4ncccn4)CC3)c2)C1=O` (stereo not shown) [Compound 244, 2-imino-5-(3-methylbutyl)-5-phenyl-3-{3-[(4-pyrimidin-2-ylpiperazin-1-yl)carbonyl]benzyl} imidazolidin-4-one], the IC50 amounted to 16.8 nM.

For the molecule `Cc1ncc2c(n1)CN(C(=O)c1cccc(CN3C(=N)NC(c4ccc(F)cc4)(c4ccc(F)cc4)C3=O)c1)C2` [Compound 254, 5,5-bis(4-fluorophenyl)-2-imino-3-{3-[(2-methyl-5,7-dihydro-6H-pyrrolo[3,4-d]pyrimidin-6-yl)carbonyl]benzyl} imidazolidin-4-one], the concentration for half-maximal inhibition (IC50) was determined as 20.2 nM. Next, `CC(C)C[C@]1(c2ccccc2)NC(=N)N([C@H](C)c2cccc(C(=O)N3CCN(C)C(=O)C3)c2)C1=O` [Compound 328, 4-[(3-{(1R)-1-[2-imino-4-(2-methylpropyl)-5-oxo-4-phenylimidazolidin-1-yl]ethyl}phenyl)carbonyl]-1-methylpiperazin-2-one]: 64.8 nM; `COC(=O)N1CCN(C(=O)c2cccc(CN3C(=N)NC(c4ccc(F)cc4)(c4ccc(F)cc4)C3=O)c2)CC1` [Compound 305, methyl 4-[(3-{[4,4-bis(4-fluorophenyl)-2-imino-5-oxoimidazolidin-1-yl]methyl}phenyl)carbonyl] piperazine-1-carboxylate]: 64.1 nM.

As to `CCOC(=O)c1nc2n(c1Cl)CCN(C(=O)c1cccc(CN3C(=N)NC(c4ccccc4)(c4ccccc4)C3=O)c1)C2` [Compound 209, ethyl 3-chloro-7-({3-[(2-imino-5-oxo-4,4-diphenylimidazolidin-1-yl)methyl]phenyl}carbonyl)-5,6,7,8-tetrahydroimidazo[1,2-a]pyrazine-2-carboxylate], the IC50 turned out to be 8.83 nM.

As to `CC(C)CC1(c2ccccc2)NC(=N)N(Cc2ccc(C(F)(F)F)c(C(=O)N3CCC(F)(F)C3)c2)C1=O` (stereo not shown) [Compound 177, 3-{3-[(3,3-difluoropyrrolidin-1-yl)carbonyl]-4-(trifluoromethyl)benzyl}-2-imino-5-(2-methylpropyl)-5-phenylimidazolidin-4-one], the IC50 turned out to be 70.3 nM. Next, `CC(C)CC[C@]1(c2ccc(F)cc2)NC(=N)N(C(Cc2ccccc2)c2ccc(C(F)(F)F)c(C(=O)N3CCn4c(nnc4C(F)(F)F)C3)c2)C1=O` (stereo partly drawn) [Compound 54, (5R)-5-(4-fluorophenyl)-2-imino-5-(3-methylbutyl)-3-{2-phenyl-1-[4-(trifluoromethyl)-3-{[3-(trifluoromethyl)-5,6-dihydro-[1,2,4]triazolo[4,3-a]pyrazin-7(8H)-yl]carbonyl}phenyl]ethyl} imidazolidin-4-one]: 5.65 nM; `COc1nnc2n1CCN(C(=O)c1cccc(CN3C(=N)NC(c4ccccc4)(c4ccccc4)C3=O)c1)C2` [Compound 340, 2-imino-3-{3-[(3-methoxy-5,6-dihydro[1,2,4]triazolo[4,3-a]pyrazin-7(8H)-yl)carbonyl]benzyl}-5,5-diphenylimidazolidin-4-one]: 76.4 nM; `CC(C)NC(=O)N1CCN(C(=O)c2cccc(CN3C(=N)NC(c4ccccc4)(c4ccccc4)C3=O)c2)CC1` [Compound 326, 4-({3-[(2-imino-5-oxo-4,4-diphenylimidazolidin-1-yl)methyl]phenyl}carbonyl)-N-(1-methylethyl) piperazine-1-carboxamide]: 59.4 nM.

Turning to `N=C1N[C@](CCCC(F)(F)F)(c2ccc(F)cc2)C(=O)N1Cc1ccc(C(F)(F)F)c(C(=O)N2Cc3cnc(-c4ccncc4)nc3C2)c1` [Compound 53, (5R)-5-(4-fluorophenyl)-2-imino-3-{3-[(2-pyridin-4-yl-5,7-dihydro-6H-pyrrolo[3,4-d]pyrimidin-6-yl)carbonyl]-4-(trifluoromethyl)-benzyl}-5-(4,4,4-trifluorobutyl)-imidazolidin-4-one], the IC50 was 5.63 nM.
